US20210069147A1, “PHARMACEUTICAL COMBINATION AND USES THEREOF” (BIONOMICS LIMITED, priority 2015, published 2021)

Legend:
[1] = system: tumor infiltrating macrophages (CD11b+); test: Number of tumor infiltrating macrophages; assay type: in vivo; details: after treatment, monotherapy and combination (FIG. 5)
Description: FIG. 5. Reduction in the number of tumor infiltrating macrophages (CD11b+) after treatment with BNC105 (monotherapy and combination).
This reduction would dramatically change the immune environment potentially releasing the immune dampening effect of macrophage subsets.

CD3+/CD8+ cells = test: Tumoral CD3+/CD8+ cells; details: in vivo
Description: (§1) BNC105 primes the immunogenic potential of a tumor with increased tumoral IFNγ content compared to control treated animals (FIG. 3). IFNγ is secreted from CD4+ Th1, CD8+ and Th0 cells and activated NK cells.

CT26 murine colon tumor = test: Efficacy in syngeneic CT26 murine colon tumor model; assay type: in vivo, mouse (Balb/c); details: Day 11; Balb/c mice with s.c. CT26 tumors; BNC105 10 mg/kg Days 1 and 8; anti-CTLA4 (Clone 9D9) 10 mg/kg i.p. Days 2, 5, 9
Protocol: The present inventors conducted a separate study to determine the efficacy of BNC105 in combination with the immune-oncology therapeutic antibody anti-CTLA4 in the syngeneic CT26 murine colon tumor model. BNC105 (10 mg/kg) was administered on Days 1 and 8, the anti-CTLA4 antibody (Clone 9D9) was administered at 10 mg/kg i.p. on Days 2, 5, and 9. Balb/c mice were inoculated subcutaneously with C1′26 cells. When tumors reached an average volume of approximately 135 mm3 animals were randomised into 5 groups of 10 mice per group.
1. Saline+PBS control 2. Saline+IgG2b isotype control, antibody 3. BNC105P+IgG2b isotype control antibody 4. Saline+anti-CTLA4 antibody 5. BNC105P+anti-CTLA4 antibody
The in-life part of this study was completed on Day 12 of the treatment period due to tumor sizes in the control groups reaching ethical limits. Tumors were collected for both FAGS analysis and for histology. FAGS analysis and histology arc currently in progress and aim to identify changes of immune T-cell populations following treatment.

[2] = system: tumor vasculature (Renca); test: Vascular stain perfusion in murine orthotopic model of Renal Cancer (Renca); assay type: in vivo; details: perfusion of a vascular stain
Description: In a murine orthotopic model of Renal Cancer (Renca) the present inventors have shown using perfusion of a vascular stain that tumor blood vessels arc obliterated after BNC105 treatment compared to normal tissue which remains unaffected.

IL-12 subunit p40 = test: Plasma biomarker analysis, Phase II mesothelioma trial (Multi-Analyte Profile); assay type: in vivo, human; details: patients, BNC105 16 mg/m2 monotherapy
Protocol: FIG. 4. Changes in levels of IL-12 p40 and II: 10 following administration with BNC105. Phase II Mesothelioma trial BNC105 (16 mg/m2) number of patients=19. Blood draws were pre-specified and optional. Patients receiving BNC105 alone received blood draws prior to BNC105 administration and 3 hours following administration. Plasma samples were used to determine exploratory analytes using Multi-Analyte Profile (MAP) technology (Myriad RBM). Graph showing % change from baseline. Percent change was calculated as analyse plasma concentration (post-baseline)/baseline*100. Mean±SEM shown on graph.
The balance between pro-inflammatory and anti-inflammatory signals provided by different immune cell populations is crucial for normal physiology and the suppression of cancer development. By altering this homeostasis an opportunity is provided for the immune system to alter the way it responds. Biomarker analysis on patient samples was conducted from a Phase II BNC105 monotherapy mesothelioma trial. […] The immune-modulatory cytokine IL-12 subunit p40, a key member of the IL-12 cytokine family, has emerged as a potent inducer of antitumor immunity. IL-12 subunit p40 is secreted by activated macrophages and serves as an essential inducer of Th1 cells development.

MC38 murine colon tumor = test: Efficacy in syngeneic MC38 murine colon tumor model; assay type: in vivo, mouse (C57/BL6); details: Day 17; C57/BL6 mice with s.c. MC38 tumors; BNC105P 10 mg/kg i.v. Day 1, 8, 15; anti-PD1 (Clone RMP1-14) 3.5 mg/kg i.p. Day 1, 4, 8, 12, 16
Protocol: The present inventors conducted a study to determine the efficacy of BNC105 in combination with the immunotherapeutic anti-PD1 antibody in the syngeneic MC38 murine colon tumor model. BNC105P was administered at 10 mg/kg i.v., on Day 1, 8 and 15, anti-PD1 antibody (Clone RMP1-14) was administered at 3.5 mg/kg i.p. on Day 1, 4, 8, 12 and 16. C57/BL6 mice were inoculated subcutaneously with MC38 cells. When tumors reached a volume of approximately 100-150 mm3 animals were randomised into groups of 10 mice per group.
1. Saline+PBS control 2. Saline+IgG2a isotypc control antibody 3. BNC105P+IgG2a isotype control antibody 4. Saline+anti-PD1 antibody 5. BNC105P+anti-PD1 antibody
The in-life pan of this study was completed on Day 18 of the treatment period due to tumor size in the control groups reaching the ethical limit. Tumors and blood were collected for FACS analysis and also tumors were collected for histology. FACS analysis and histology is currently under way and is aimed at identifying changes of immune T-cell populations following treatment.

IFNγ = test: Tumoral levels of IFNγ; assay type: in vivo; details: 16 mg/kg BNC105 versus saline (FIG. 3)
Protocol: FIG. 3. Tumoral levels of IFNγ in animals administered with saline or 16 mg/kg BNC105.
as §1

SMILES	number of tumor infiltrating macrophages (CD11b+) [1]	change in tumoral CD3+/CD8+ cells (CD3+/CD8+ cells)	tumor growth inhibition (CT26 murine colon tumor) [%]	normal tissue vasculature after treatment [2]	tumor blood vessels after treatment [2]	plasma IL-12 subunit p40 post administration (IL-12 subunit p40; 3 hours following administration versus baseline)	plasma IL-12 subunit p40 at Day 8 post dosing (IL-12 subunit p40; Day 8)	tumor growth inhibition (TGI) (MC38 murine colon tumor) [%]	tumoral IFNγ content compared to control treated animals (IFNγ)
COc1cc(C(=O)c2c(C)oc3c(O)c(OC)ccc23)cc(OC)c1OC [BNC105, 2-methyl-7-hydroxy-3-(3,4,5-trimethoxybenzoyl)-6-methoxybenzofuran]	significant reduction	No change	27	unaffected	obliterated	significantly increases	remains elevated	40	increased
COc1cc(C(=O)c2c(C)oc3c(OP(=O)([O-])[O-])c(OC)ccc23)cc(OC)c1OC.[Na+].[Na+] [BNC105P, di sodium [6-methoxy-2-methyl-3-(3,4,5-trimethoxybenzoyl)-1-benzofuran-7-yl] phosphate]			27					40	
